The values below come from patent US12576039B2, “Lipid-polymer compositions and methods of use” (Max Biology Co. Ltd., priority 2020, dated 2026).

The structures appear in SMILES notation.

Series [1] in a line: Saturated solubility of CBD (HPLC). The class given is physicochemical. The note with it: formulations containing PLURONIC F127 from 7% to 11%, excess CBD stirred overnight at room temperature, filtered 0.45 μm. As to the method: To determine the saturated solubility of CBD in the presence of PLURONIC® F127, PLURONIC® formulations were made as above. To each formulation excess CBD was added and left stirring overnight on a magnetic stirrer at room temperature (FIG. 17). To see how addition of lipids affects saturated solubility, lipids were added to 5% PLURONIC® F127 containing excess CBD using the ethanol injection method. For this, a 19G needle was immersed into the formulation being stirred, and 8.11% (volume of sample end volume) of the lipid stock formulation was injected at the rate of 750 μl/7 sec. Each formulation at this point was then left stirring overnight as above. On the following day, the formulations were filtered using 0.45 μm syringe filters and the amount of CBD dissolved was quantified using high pressure liquid chromatography.
CBD content was determined by diluting the samples in acetonitrile (ACN) (as needed) and then analysing them using HPLC. Calibration curve and sample quantification was carried out using an Agilent Infinity 1260 system. An Eclipse Plus C18, 4.6×150 mm, 3.5 μm column was purchased from […]. The mobile phase used was ACN:Water (82:18 v/v). HPLC analysis was carried at room temperature at a flow rate of 1 ml/min and an injection volume of 20 μl. […] Particle size and polydispersity was determined using a Brookhaven dynamic light scattering system.

For series [2] the following is noted: very low solubility in water, high lipophilicity; cited from earlier work.

Regarding `C=C(C)[C@@H]1CCC(C)=C[C@H]1c1c(O)cc(CCCCC)cc1O` [CBD, cannabidiol], in series [1], the “peak CBD concentration (saturated solubility)” value is reported as “approximately 2 % w/v”. Further, the “Biopharmaceutical Classification System (BCS) classification” value in series [2] was “class 2”.
